Data from US8927517B2, “Factors controlling skin and hair color” (Kao Corporation, priority 2012, dated 2015).

Key:
[1] = system: Skin tissues from a donor; test: Lightness (L* value) of cultured human skin tissue with autophagy-regulating agent; format: cell-based; settings: verapamil 10 μM, rapamycin 1 μM or HCQ 10 μM; cultured 8 days; colorimeter; FIG. 10
Description: Skin tissues were collected from a donor, and were then cultured in the presence or absence of an autophagy inducer verapamil (10 μM) or rapamycin (1 μM), or an autophagy inhibitor hydroxychloroquine (HCQ, 10 μM). After completion of the culture for 8 days, the lightness (L* value) of the cultured skin was measured with a colorimeter (Colorimeter; cyberDERM).

[2] = system: 3D-HSSs (three-dimensional human skin substitutes containing NHEK and NHEM); test: 3D-HSSs cultured with autophagy inducer or inhibitor (photographs, Western blotting); format: cell-based; settings: HCQ 10 μM with endothelin-1 and SCF, 14 days
Description: Three-dimensional culture human skin models (3D-human skin substitutes; 3D-HSSs) were purchased from MatTek Co. (MEL-300A or B), and they were then maintained at 37° C. in 5% CO2 in EPI-100NMM-113 medium (MatTek Co.) according to a production manual included therewith.
3D-HSSs (three-dimensional human skin substitutes, reconstituted epidermal models containing NHEK and NHEM) were cultured together with an autophagy inducer verapamil (10 μM) or rapamycin (1 μM) for 14 days. The medium was exchanged with a fresh one every other day. After completion of the culture, Western blotting analysis was carried out on the culture, using a p62-specific antibody (MBL International) and an LC3-specific antibody (Cosmo Bio Co. Ltd. or MBL International) by the same procedures as those applied in Reference Example 1.
On the other hand, 3D-HSSs were cultured together with an autophagy inhibitor hydroxychloroquine (HCQ, 10 μM) in the presence of endothelin-1 and SCF for 14 days, and Western blotting analysis was then carried out on the culture.

| SMILES | lightness (L* value) of the cultured skin [1] | darkening of 3D-HSSs ([2]; FIG. 9C) | amount of p62 ([2]; FIG. 9D) |
| --- | --- | --- | --- |
| CCN(CCO)CCCC(C)Nc1ccnc2cc(Cl)ccc12 (stereo not shown) [hydroxychloroquine] | decreased | became darkened | increased |
| COc1ccc(CCN(C)CCCC(C#N)(c2ccc(OC)c(OC)c2)C(C)C)cc1OC (stereo not shown) [verapamil] | increased |  |  |
